What was measured:
[1] = test system: Tyrosine-protein kinase ABL1 (Homo sapiens), P00519 [F317I]; conditions: Compound concentration 1000.0 nM
[2] = test system: Tyrosine-protein kinase ABL1 (Homo sapiens), P00519 [F317I]; conditions: Compound concentration 1000.0 nM; remark: listed apart in the source
[3] = target: Activin receptor type-2A (Homo sapiens) (UniProt P27037); conditions: Compound concentration 1000.0 nM
[4] = target: ALK tyrosine kinase receptor (Homo sapiens) (UniProt Q9UM73); conditions: Compound concentration 1000.0 nM
[5] = target: NUAK family SNF1-like kinase 1 (Homo sapiens) (UniProt O60285); conditions: Compound concentration 1000.0 nM
[6] = target: Bone morphogenetic protein receptor type-2 (Homo sapiens) (UniProt Q13873); conditions: Compound concentration 1000.0 nM
[7] = target: Calcium/calmodulin-dependent protein kinase type IV (Homo sapiens) (UniProt Q16566); conditions: Compound concentration 1000.0 nM
[8] = target: Cyclin-dependent kinase 4 (Homo sapiens) (UniProt P11802); conditions: Compound concentration 1000.0 nM
[9] = target: Macrophage colony-stimulating factor 1 receptor (Homo sapiens) (UniProt P07333); conditions: Compound concentration 1000.0 nM
[10] = target: Tyrosine-protein kinase CSK (Homo sapiens) (UniProt P41240); conditions: Compound concentration 1000.0 nM
[11] = target: Serine/threonine-protein kinase DCLK2 (Homo sapiens) (UniProt Q8N568); conditions: Compound concentration 1000.0 nM
[12] = target: Serine/threonine-protein kinase 17B (Homo sapiens) (UniProt O94768); conditions: Compound concentration 1000.0 nM
[13] = test system: Epidermal growth factor receptor (Homo sapiens), P00533 [T790M]; conditions: Compound concentration 1000.0 nM
[14] = target: Ephrin type-B receptor 1 (Homo sapiens) (UniProt P54762); conditions: Compound concentration 1000.0 nM
[15] = target: Receptor tyrosine-protein kinase erbB-2 (Homo sapiens) (UniProt P04626); conditions: Compound concentration 1000.0 nM
[16] = target: G protein-coupled receptor kinase 3 (Homo sapiens) (UniProt P35626); conditions: Compound concentration 1000.0 nM
[17] = target: Homeodomain-interacting protein kinase 3 (Homo sapiens) (UniProt Q9H422); conditions: Compound concentration 1000.0 nM
[18] = target: Mitogen-activated protein kinase kinase kinase kinase 1 (Homo sapiens) (UniProt Q92918); conditions: Compound concentration 1000.0 nM
[19] = target: Interleukin-1 receptor-associated kinase 1 (Homo sapiens) (UniProt P51617); conditions: Compound concentration 1000.0 nM
[20] = target: Interleukin-1 receptor-associated kinase 3 (Homo sapiens) (UniProt Q9Y616); conditions: Compound concentration 1000.0 nM
[21] = test system: Mast/stem cell growth factor receptor Kit (Homo sapiens), P10721 [A829P]; conditions: Compound concentration 1000.0 nM
[22] = target: Mitogen-activated protein kinase kinase kinase 1 (Homo sapiens) (UniProt Q13233); conditions: Compound concentration 1000.0 nM
[23] = target: MAP/microtubule affinity-regulating kinase 3 (Homo sapiens) (UniProt P27448); conditions: Compound concentration 1000.0 nM
[24] = target: Dual specificity mitogen-activated protein kinase kinase 3 (Homo sapiens) (UniProt P46734); conditions: Compound concentration 1000.0 nM
[25] = target: Dual specificity mitogen-activated protein kinase kinase 6 (Homo sapiens) (UniProt P52564); conditions: Compound concentration 1000.0 nM
[26] = target: Mitogen-activated protein kinase kinase kinase 10 (Homo sapiens) (UniProt Q02779); conditions: Compound concentration 1000.0 nM
[27] = target: Macrophage-stimulating protein receptor (Homo sapiens) (UniProt Q04912); conditions: Compound concentration 1000.0 nM
[28] = target: Myosin light chain kinase, smooth muscle (Homo sapiens) (UniProt Q15746); conditions: Compound concentration 1000.0 nM
[29] = target: Myosin-IIIa (Homo sapiens) (UniProt Q8NEV4); conditions: Compound concentration 1000.0 nM
[30] = target: Serine/threonine-protein kinase Nek2 (Homo sapiens) (UniProt P51955); conditions: Compound concentration 1000.0 nM
[31] = target: Mitogen-activated protein kinase kinase kinase 14 (Homo sapiens) (UniProt Q99558); conditions: Compound concentration 1000.0 nM
[32] = target: Phosphorylase b kinase gamma catalytic chain, skeletal muscle/heart isoform (Homo sapiens) (UniProt Q16816); conditions: Compound concentration 1000.0 nM
[33] = test system: Phosphatidylinositol 4,5-bisphosphate 3-kinase catalytic subunit alpha isoform (Homo sapiens), P42336 [H1047L]; conditions: Compound concentration 1000.0 nM
[34] = target: Phosphatidylinositol 4-kinase beta (Homo sapiens) (UniProt Q9UBF8); conditions: Compound concentration 1000.0 nM
[35] = target: Phosphatidylinositol 4-phosphate 5-kinase type-1 alpha (Homo sapiens) (UniProt Q99755); conditions: Compound concentration 1000.0 nM
[36] = target: Serine/threonine-protein kinase PknB (Mycobacterium tuberculosis) (UniProt P9WI81); conditions: Compound concentration 1000.0 nM
[37] = test system: Proto-oncogene tyrosine-protein kinase receptor Ret (Homo sapiens), P07949 [M918T]; conditions: Compound concentration 1000.0 nM
[38] = target: Ribosomal protein S6 kinase alpha-5 (Homo sapiens) (UniProt O75582); conditions: Compound concentration 1000.0 nM
[39] = target: Serine/threonine-protein kinase Sgk3 (Homo sapiens) (UniProt Q96BR1); conditions: Compound concentration 1000.0 nM
[40] = target: Serine/threonine-protein kinase ULK1 (Homo sapiens) (UniProt O75385); conditions: Compound concentration 1000.0 nM
[41] = target: Mitogen-activated protein kinase kinase kinase 19 (Homo sapiens) (UniProt Q56UN5); conditions: Compound concentration 1000.0 nM
[42] = target: Sodium-dependent serotonin transporter (Homo sapiens) (UniProt P31645); conditions: Compound concentration 10.0 uM
[43] = target: GABA-A receptor; anion channel (Rattus norvegicus) (UniProt O09028+P15431+P18506+P18508+P19969+P20236+P23574+P23576+P28471+P28473+P30191+P62813+P63079+P63138+Q91ZM7+Q9ES14); conditions: Compound concentration 10.0 uM

Chain of Tyrosine-protein kinase ABL1 (Homo sapiens), P00519 [F317I] (P00519 whole entry F317I): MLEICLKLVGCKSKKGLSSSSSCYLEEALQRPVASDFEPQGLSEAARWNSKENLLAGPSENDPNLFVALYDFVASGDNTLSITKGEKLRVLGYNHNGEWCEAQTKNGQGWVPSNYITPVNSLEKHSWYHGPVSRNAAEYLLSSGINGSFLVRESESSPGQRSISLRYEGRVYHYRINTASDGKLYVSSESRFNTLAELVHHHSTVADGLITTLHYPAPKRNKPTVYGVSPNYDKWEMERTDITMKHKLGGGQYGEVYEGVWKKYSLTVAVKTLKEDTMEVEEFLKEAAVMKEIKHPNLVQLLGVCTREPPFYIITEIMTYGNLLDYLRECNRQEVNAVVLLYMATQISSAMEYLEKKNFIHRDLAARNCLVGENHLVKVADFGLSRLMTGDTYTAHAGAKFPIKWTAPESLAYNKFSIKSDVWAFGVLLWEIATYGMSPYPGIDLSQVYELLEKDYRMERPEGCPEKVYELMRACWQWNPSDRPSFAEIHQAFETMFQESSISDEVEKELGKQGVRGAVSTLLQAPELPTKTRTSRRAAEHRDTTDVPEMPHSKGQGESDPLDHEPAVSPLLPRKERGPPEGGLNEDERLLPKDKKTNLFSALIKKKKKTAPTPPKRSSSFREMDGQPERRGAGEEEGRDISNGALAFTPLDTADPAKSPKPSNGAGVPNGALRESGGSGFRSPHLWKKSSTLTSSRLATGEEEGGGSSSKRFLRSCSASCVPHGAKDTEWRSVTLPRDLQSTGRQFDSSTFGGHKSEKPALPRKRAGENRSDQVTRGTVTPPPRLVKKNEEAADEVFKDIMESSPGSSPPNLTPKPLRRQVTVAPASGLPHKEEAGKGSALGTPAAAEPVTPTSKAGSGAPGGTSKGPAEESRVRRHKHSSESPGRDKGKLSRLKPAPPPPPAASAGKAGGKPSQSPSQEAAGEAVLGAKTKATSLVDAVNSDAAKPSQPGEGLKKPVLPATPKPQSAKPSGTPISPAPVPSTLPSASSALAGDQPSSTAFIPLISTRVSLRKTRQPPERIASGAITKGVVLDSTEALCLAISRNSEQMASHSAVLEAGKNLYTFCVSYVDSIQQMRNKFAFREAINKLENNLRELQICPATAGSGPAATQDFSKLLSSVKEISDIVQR
Chain of NUAK family SNF1-like kinase 1 (Homo sapiens) (O60285 whole entry): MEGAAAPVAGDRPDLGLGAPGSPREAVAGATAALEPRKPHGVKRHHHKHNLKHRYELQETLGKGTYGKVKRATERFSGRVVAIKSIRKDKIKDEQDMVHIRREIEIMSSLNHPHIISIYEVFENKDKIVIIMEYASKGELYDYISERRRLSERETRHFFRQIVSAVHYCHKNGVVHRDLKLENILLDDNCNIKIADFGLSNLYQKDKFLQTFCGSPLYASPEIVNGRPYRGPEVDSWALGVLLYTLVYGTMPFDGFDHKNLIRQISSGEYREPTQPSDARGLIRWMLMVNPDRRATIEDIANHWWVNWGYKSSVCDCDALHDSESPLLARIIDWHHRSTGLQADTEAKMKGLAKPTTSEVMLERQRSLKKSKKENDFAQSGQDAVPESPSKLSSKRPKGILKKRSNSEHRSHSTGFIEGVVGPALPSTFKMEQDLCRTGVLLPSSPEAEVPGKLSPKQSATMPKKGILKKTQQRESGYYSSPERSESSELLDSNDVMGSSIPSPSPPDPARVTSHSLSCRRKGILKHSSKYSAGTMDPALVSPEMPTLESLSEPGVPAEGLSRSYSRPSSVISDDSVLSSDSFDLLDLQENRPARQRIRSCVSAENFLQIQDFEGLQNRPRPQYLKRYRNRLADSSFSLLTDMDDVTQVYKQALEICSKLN
Chain of Myosin-IIIa (Homo sapiens) (Q8NEV4 whole entry): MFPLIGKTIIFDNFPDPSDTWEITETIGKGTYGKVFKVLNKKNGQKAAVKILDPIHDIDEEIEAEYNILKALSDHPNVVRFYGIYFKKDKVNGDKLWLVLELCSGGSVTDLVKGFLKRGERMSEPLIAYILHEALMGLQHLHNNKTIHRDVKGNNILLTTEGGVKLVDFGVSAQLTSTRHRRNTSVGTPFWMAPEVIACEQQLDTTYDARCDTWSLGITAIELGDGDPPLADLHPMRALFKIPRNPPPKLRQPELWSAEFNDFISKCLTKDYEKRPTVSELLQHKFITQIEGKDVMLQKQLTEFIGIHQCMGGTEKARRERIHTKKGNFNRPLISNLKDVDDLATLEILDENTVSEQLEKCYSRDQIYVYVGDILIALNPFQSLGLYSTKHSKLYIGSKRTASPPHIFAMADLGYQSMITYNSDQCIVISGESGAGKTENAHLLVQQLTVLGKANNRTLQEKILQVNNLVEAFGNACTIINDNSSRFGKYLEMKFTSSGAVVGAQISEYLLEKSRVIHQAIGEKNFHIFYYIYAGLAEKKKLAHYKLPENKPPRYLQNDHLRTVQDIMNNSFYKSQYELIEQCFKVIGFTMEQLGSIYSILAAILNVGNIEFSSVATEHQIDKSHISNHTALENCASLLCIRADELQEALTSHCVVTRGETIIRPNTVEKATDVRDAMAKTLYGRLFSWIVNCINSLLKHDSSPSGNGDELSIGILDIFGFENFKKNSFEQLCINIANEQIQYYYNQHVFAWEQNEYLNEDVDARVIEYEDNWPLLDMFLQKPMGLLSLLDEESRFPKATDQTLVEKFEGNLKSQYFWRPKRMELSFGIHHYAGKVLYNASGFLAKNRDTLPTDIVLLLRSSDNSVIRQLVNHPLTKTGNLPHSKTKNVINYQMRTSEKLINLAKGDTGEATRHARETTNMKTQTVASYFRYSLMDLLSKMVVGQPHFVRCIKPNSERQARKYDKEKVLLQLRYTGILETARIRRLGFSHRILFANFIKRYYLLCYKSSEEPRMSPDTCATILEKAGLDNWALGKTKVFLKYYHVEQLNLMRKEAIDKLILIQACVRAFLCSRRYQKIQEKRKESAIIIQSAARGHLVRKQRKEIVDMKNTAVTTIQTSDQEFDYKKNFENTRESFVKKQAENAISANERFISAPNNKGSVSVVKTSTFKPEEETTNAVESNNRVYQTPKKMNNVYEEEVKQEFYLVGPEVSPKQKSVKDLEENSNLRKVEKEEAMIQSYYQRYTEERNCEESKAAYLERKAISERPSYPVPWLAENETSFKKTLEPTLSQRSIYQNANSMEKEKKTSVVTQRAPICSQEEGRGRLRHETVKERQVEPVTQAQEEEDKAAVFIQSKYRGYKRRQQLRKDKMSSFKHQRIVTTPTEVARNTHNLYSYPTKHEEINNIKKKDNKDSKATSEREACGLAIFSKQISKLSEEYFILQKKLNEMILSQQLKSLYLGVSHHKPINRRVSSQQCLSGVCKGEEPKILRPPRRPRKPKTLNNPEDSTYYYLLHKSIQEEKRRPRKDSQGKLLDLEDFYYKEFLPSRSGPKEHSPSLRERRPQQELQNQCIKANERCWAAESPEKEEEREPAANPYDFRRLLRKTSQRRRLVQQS
Chain of Activin receptor type-2A (Homo sapiens) (P27037 whole entry): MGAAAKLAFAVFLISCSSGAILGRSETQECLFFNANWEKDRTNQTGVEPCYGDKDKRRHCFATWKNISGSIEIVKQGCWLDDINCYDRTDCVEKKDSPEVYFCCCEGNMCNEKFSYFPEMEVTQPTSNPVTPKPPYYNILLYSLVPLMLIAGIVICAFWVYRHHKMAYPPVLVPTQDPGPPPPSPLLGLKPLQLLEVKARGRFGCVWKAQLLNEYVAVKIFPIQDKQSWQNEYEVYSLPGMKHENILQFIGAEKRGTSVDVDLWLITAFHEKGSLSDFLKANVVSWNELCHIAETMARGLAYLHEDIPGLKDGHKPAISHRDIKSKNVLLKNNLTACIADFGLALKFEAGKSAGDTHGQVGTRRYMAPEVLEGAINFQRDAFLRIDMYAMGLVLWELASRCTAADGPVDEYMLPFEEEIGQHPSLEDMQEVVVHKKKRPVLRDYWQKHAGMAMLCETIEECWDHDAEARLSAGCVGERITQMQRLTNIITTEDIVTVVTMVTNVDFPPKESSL
Chain of Tyrosine-protein kinase CSK (Homo sapiens) (P41240 2-450 limits assumed): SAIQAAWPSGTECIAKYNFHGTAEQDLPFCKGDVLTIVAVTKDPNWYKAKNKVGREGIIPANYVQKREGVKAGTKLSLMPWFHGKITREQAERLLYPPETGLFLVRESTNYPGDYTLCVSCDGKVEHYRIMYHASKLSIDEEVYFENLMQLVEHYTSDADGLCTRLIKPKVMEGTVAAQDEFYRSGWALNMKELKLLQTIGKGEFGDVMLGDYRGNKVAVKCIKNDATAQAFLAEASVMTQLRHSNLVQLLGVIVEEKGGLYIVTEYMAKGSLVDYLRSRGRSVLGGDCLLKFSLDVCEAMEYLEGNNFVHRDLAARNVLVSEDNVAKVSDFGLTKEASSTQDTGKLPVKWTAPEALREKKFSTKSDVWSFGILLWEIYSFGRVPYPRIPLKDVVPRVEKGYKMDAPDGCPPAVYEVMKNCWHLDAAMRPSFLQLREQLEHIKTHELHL
Chain of Dual specificity mitogen-activated protein kinase kinase 6 (Homo sapiens) (P52564 whole entry): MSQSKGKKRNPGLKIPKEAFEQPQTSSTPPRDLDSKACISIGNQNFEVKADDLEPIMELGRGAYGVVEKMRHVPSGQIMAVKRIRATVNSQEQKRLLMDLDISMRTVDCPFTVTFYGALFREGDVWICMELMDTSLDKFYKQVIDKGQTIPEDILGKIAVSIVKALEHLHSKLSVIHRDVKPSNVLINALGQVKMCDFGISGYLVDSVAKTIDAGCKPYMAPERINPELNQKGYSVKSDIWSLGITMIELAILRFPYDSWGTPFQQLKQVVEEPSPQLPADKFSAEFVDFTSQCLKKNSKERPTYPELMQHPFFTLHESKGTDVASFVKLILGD
Chain of Cyclin-dependent kinase 4 (Homo sapiens) (P11802 whole entry): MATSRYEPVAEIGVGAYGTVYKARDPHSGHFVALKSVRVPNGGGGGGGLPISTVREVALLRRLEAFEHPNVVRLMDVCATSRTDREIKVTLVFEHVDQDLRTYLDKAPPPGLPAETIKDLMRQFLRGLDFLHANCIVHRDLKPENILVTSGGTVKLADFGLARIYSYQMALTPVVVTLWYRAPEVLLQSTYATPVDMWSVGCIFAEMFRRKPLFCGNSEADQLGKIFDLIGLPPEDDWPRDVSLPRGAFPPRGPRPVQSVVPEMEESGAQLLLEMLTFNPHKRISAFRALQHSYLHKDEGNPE

CCCCN(CCCC)C(=O)CN1C[C@H](c2cc(OC)c3c(c2)OCO3)[C@@H](C(=O)O)[C@@H]1CC(C)(C)CCC [ABT-546]
inactive: residual activity [1] 98.5% | residual activity [2] 72.5% | residual activity [3] 97.4% | residual activity [4] 58.3% | residual activity [5] 100% | residual activity [6] 80% | residual activity [7] 100% | residual activity [8] 70.3% | residual activity [9] 100% | residual activity [10] 100% | residual activity [11] 100% | residual activity [12] 100% | residual activity [13] 79% | residual activity [14] 100% | residual activity [15] 95.6% | residual activity [16] 50.8% | residual activity [17] 100% | residual activity [18] 90.6% | residual activity [19] 64.3% | residual activity [20] 100% | residual activity [21] 80.9% | residual activity [22] 100% | residual activity [23] 98.7% | residual activity [24] 57.5% | residual activity [25] 100% | residual activity [26] 97% | residual activity [27] 100% | residual activity [28] 100% | residual activity [29] 100% | residual activity [30] 100% | residual activity [31] 100% | residual activity [32] 100% | residual activity [33] 100% | residual activity [34] 80.5% | residual activity [35] 100% | residual activity [36] 85% | residual activity [37] 100% | residual activity [38] 100% | residual activity [39] 75.7% | residual activity [40] 79.4% | residual activity [41] 90.3% | inhibition [42] 15.3% | inhibition [43] 19.7%

CCCCN(CCCC)C(=O)CN1C[C@@H](c2cc(OC)c3c(c2)OCO3)[C@H](C(=O)O)[C@H]1CC(C)(C)CCC [A-545]
inactive: residual activity [1] 100% | residual activity [2] 94.3% | residual activity [3] 85.1% | residual activity [4] 100% | residual activity [5] 82.4% | residual activity [6] 86.7% | residual activity [7] 100% | residual activity [8] 100% | residual activity [9] 86.7% | residual activity [10] 100% | residual activity [11] 87.4% | residual activity [12] 100% | residual activity [13] 86.7% | residual activity [14] 100% | residual activity [15] 92.1% | residual activity [16] 87.6% | residual activity [17] 100% | residual activity [18] 99.6% | residual activity [19] 76.6% | residual activity [20] 85% | residual activity [21] 76.5% | residual activity [22] 100% | residual activity [23] 93.7% | residual activity [24] 89.5% | residual activity [25] 90.8% | residual activity [26] 65.4% | residual activity [27] 100% | residual activity [28] 84.4% | residual activity [29] 100% | residual activity [30] 98.7% | residual activity [31] 100% | residual activity [32] 97.5% | residual activity [33] 62.4% | residual activity [34] 97.6% | residual activity [35] 100% | residual activity [36] 92.8% | residual activity [37] 100% | residual activity [38] 98.5% | residual activity [39] 100% | residual activity [40] 89.2% | residual activity [41] 100% | inhibition [42] -7.99% | inhibition [43] 8.52%

— ChEMBL document CHEMBL4507258 (2021)
